Measurements taken from patent US12698269B2, “1-aryltetrahydropyridazine-3,5-dione derivative or salt thereof and insecticidal agent containing the compound and method for using same” (NIHON NOHYAKU CO., LTD., priority 2022, dated 2026).

How the values were obtained:
Assay type in all cases: in vivo
[1] = system: Small Brown Planthopper (Laodelphax striatellus); test: Insecticidal test on small brown planthopper, dip treatment of rice seedlings; conditions: 192 h, rice seedling dip, 8 days after inoculation, read-out: insecticidal efficacy (corrected mortality rate) against small brown planthopper
From the text: Insecticidal Test on Small Brown Planthopper (Laodelphax striatellus)
The compounds represented by the general formula (1) of the present invention or salts thereof were separately dispersed in water and diluted to 50 ppm or 500 ppm. Rice plant seedlings (variety: Nihonbare) were dipped in the agrochemical dispersions for 30 seconds. After air-dried, each seedling was put into a separate glass test tube and inoculated with ten 3rd-instar larvae of small brown planthopper, and then the glass test tubes were capped with cotton plugs. At 8 days after the inoculation, the numbers of surviving larvae and dead larvae were counted, the corrected mortality rate was calculated according to the formula shown below, and the insecticidal efficacy was evaluated according to the criteria of Test Example 1. Corrected mortality rate (%)=(Survival rate in a non-treatment plot−Survival rate in a treatment plot)/(Survival rate in a non-treatment plot)×100 [Expression 2]

[2] = system: Western Flower thrips (Frankliniella occidentalis); test: Insecticidal test on western flower thrips, kidney bean leaf pieces; conditions: 96 h, 4 days after treatment, read-out: insecticidal efficacy (corrected mortality rate) against western flower thrips
From the text: Insecticidal Test on Western Flower thrips (Frankliniella occidentalis)
Female adults of western flower thrips were inoculated onto kidney bean leaf pieces, and allowed to lay eggs thereon for one day, then the female adults were removed. After 3 days, the hatched larvae on the leaf pieces were counted, and then the agrochemical dispersions diluted to 50 ppm or 500 ppm, each of which contained the compound described in Tables 1 to 4 as an active ingredient were applied. The number of larvae of the species surviving at 4 days after the treatment was counted, and the corrected mortality rate was calculated according to the formula shown below, and the insecticidal efficacy was evaluated according to the criteria of Test Example 1. This test was conducted in duplicate. Corrected mortality rate (%)=(Survival rate in a non-treatment plot−Survival rate in a treatment plot)/(Survival rate in a non-treatment plot)×100 [Expression 3]

[3] = system: Diamondback moth (Plutella xylostella); test: Insecticidal test on diamondback moth, dip treatment of Chinese cabbage seedlings with laid eggs; conditions: 144 h, 6 days after treatment, read-out: insecticidal efficacy (corrected mortality rate) against diamondback moth
From the text: Insecticidal Test on Diamondback moth (Plutella xylostella)
Adults of diamondback moth were released onto Chinese cabbage seedlings and allowed to lay eggs thereon. At 2 days after the release of the adults, the Chinese cabbage seedlings with laid eggs were dipped for about 30 seconds in agrochemical dispersions diluted to 50 ppm or 500 ppm, each of which contained a different compound represented by the general formula (1) of the present invention as an active ingredient. After air-dried, the seedlings were kept in a thermostatic chamber at 25° C. At 6 days after the dip treatment, the number of surviving larvae per plot was counted, the corrected mortality rate was calculated according to the formula shown below, and the insecticidal efficacy was evaluated according to the criteria shown below. This test was conducted in triplicate using 10 adults of diamondback moth per plot. Corrected mortality rate (%)=(Survival rate in a non-treatment plot−Survival rate in a treatment plot)/(Survival rate in a non-treatment plot)×100 [Expression 1] Criteria: • A: the mortality rate is 100%. • B: the mortality rate is 90 to 99%. • C: the mortality rate is 80 to 89%. • D: the mortality rate is 50 to 79%. • E: the mortality rate is 0 to 49%.

CCCNC(=O)N1C(=O)C(=C(Nc2ccc(F)cc2)SC)C(=O)CN1c1ccc(C#N)nc1 [Compound No. 1-182, (5EZ)-2-(6-cyanopyridin-3-yl)-5-(((4-fluorophenyl)amino)(methylthio)methylene)-4,6-dioxo-N-propyl-tetrahydropyridazine-1(2H)-carboxamide]
100%: mortality at 50 ppm [1] | mortality at 500 ppm [1]

CSC(Nc1ccc(F)cc1)=C1C(=O)CN(c2ccc(C#N)nc2)N(C)C1=O [Compound No. 1-197, (4EZ)-5-(4-(((4-fluorophenyl)amino)(methylthio)methylene)-2-methyl-3,5-dioxo-tetrahydropyridazin-1(2H)-yl)picolinonitrile]
100%: mortality at 50 ppm [2] | mortality at 500 ppm [2] | mortality at 50 ppm [1] | mortality at 500 ppm [1]

CSC(Nc1ccc(F)cc1)=C1C(=O)CN(c2ccc(C(F)(F)F)nc2)N(C(=O)OC(C)(C)C)C1=O [Compound No. 1-63, tert-butyl (5EZ)-5-(((4-fluorophenyl)amino)(methylthio)methylene)-4,6-dioxo-2-[6-(trifluoromethyl)pyridin-3-yl]-tetrahydropyridazine-1(2H)-carboxylate]
100%: mortality at 50 ppm [2] | mortality at 500 ppm [2] | mortality at 50 ppm [1] | mortality at 500 ppm [1] | mortality at 50 ppm ([3]; 50 ppm) | mortality at 500 ppm [3]

CSC(Nc1ccc(F)cc1)=C1C(=O)CN(c2ccc(C#N)nc2)N(C(=O)C2CC2)C1=O [Compound No. 1-44, (4EZ)-5-(2-(cyclopropanecarbonyl)-4-(((4-fluorophenyl)amino)(methylthio)methylene)-3,5-dioxo-tetrahydropyridazin-1(2H)-yl)picolinonitrile]
100%: mortality at 50 ppm [2] | mortality at 500 ppm [2] | mortality at 50 ppm [1] | mortality at 500 ppm [1] | mortality at 500 ppm [3]
